Measurements published in patent US20260317356A1, “SMALL MOLECULE MODULATORS OF OGG1” (AZKARRA THERAPEUTICS, INC., priority 2023, published 2026).

These compounds were tested against hOGG1 (Homo sapiens, UniProt O15527) (assay: Biochemical fluorescence assay to measure enzymatic activity of hOGG1 (OGG1/APEX IC50)). Conditions: 1 nM OGG1+2 nM APEX+6 nM dsDNA (8-oxo-dG substrate); pH 7.5; RT 40 min; read-out: OGG1/APEX IC50.
Parameters: Protein His-hOGG1 (12-323) was prepared; His (N); host or cells: E. coli
Outline: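 Coupled glycosylase/AP-endonuclease read-out: 8-oxo-dG-containing dsDNA (6 nM) cleaved by 1 nM His-hOGG1 (12-323) plus 2 nM APEX1 over 40 min at room temperature, after 20 min enzyme–compound preincubation; buffer 20 mM Tris pH 7.5, 100 mM KCl, 0.1% BSA, 0.01% Tween. IC50 comes from sigmoidal 3-parameter fitting of % inhibition derived from TAMRA signal.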

Sequence of hOGG1 (O15527 12-323): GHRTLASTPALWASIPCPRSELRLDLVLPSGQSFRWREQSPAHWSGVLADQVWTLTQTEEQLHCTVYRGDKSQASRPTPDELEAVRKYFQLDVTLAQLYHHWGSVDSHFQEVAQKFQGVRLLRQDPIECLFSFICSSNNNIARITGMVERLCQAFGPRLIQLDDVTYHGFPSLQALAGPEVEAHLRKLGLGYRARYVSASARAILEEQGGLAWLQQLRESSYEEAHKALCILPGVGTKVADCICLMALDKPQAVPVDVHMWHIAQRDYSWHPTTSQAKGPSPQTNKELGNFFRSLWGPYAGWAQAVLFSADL

Structure (SMILES)	IC50 [nM]
COc1cc(NC(=O)[C@H]2CC[C@@H](N3Cc4c(C)cnc(CN)c4NC3=O)CC2)ccc1C [Example 20, (1s,4s)-4-(8-(Aminomethyl)-5-methyl-2-oxo-1,2-dihydropyrido[3,4-d]pyrimidin-3(4H)-yl)-N-(3-methoxy-4-methylphenyl)cyclohexanecarboxamide]	< 100
COc1cc(NC(=O)[C@H]2CC[C@@H](N3Cc4c(C)cnc(CNS(C)(=O)=O)c4NC3=O)CC2)ccc1C [Example 18, (1s,4s)-N-(3-Methoxy-4-methylphenyl)-4-(5-methyl-8-(methylsulfonamidomethyl)-2-oxo-1,2-dihydropyrido[3,4-d]pyrimidin-3(4H)-yl)cyclohexanecarboxamideoxamide]	< 100
COc1cc(NC(=O)[C@]2(C)CC[C@@H](N3Cc4c(C)cccc4NC3=O)CC2)ccc1C (single isomer, unassigned) [Example 102, (1r,4r)-N-(3-methoxy-4-methylphenyl)-1-methyl-4-(5-methyl-2-oxo-1,2-dihydroquinazolin-3(4H)-yl)cyclohexanecarboxamide]	1000 to 10000
COc1cc(NC(=O)[C@H]2CC[C@@H](N3Cc4c(C)cc(O)cc4NC3=O)CC2)ccc1C [Example 77, (1s,4s)-4-(7-hydroxy-5-methyl-2-oxo-1,2-dihydroquinazolin-3(4H)-yl)-N-(3-methoxy-4-methylphenyl)cyclohexanecarboxamide]	< 100
COc1cc(NC(=O)[C@H]2CC[C@@H](N3Cc4c(C)cc(OCC5(O)CNC5)cc4C3=O)CC2)ccc1C [Example 138, (1s,4s)-4-(6-((3-Hydroxyazetidin-3-yl)methoxy)-4-methyl-1-oxoisoindolin-2-yl)-N-(3-methoxy-4-methylphenyl)cyclohexanecarboxamide]	< 100
COc1cc(NC(=O)[C@H]2CC[C@@H](N3Cc4c(CN)ccc(Cl)c4C3=O)CC2)ccc1C [Example 133, (1s,4s)-4-(4-(Aminomethyl)-7-chloro-1-oxoisoindolin-2-yl)-N-(3-methoxy-4-methylphenyl)cyclohexane-1-carboxamide]	> 10000
COc1cc(NC(=O)[C@H]2CC[C@H](N3Cc4c(C)cc(COC5CNC5)cc4NC3=O)CC2)ccc1C [Example 111, (1r,4r)-4-(7-((azetidin-3-yloxy)methyl)-5-methyl-2-oxo-1,2-dihydroquinazolin-3(4H)-yl)-N-(3-methoxy-4-methylphenyl)cyclohexanecarboxamide]	> 10000
COc1cc(NC(=O)[C@H]2CC[C@@H](N3Cc4c(C)ccc(Br)c4NC3=O)CC2)ccc1C [Example 62, (1s,4s)-4-(8-Bromo-5-methyl-2-oxo-1,2-dihydroquinazolin-3(4H)-yl)-N-(3-methoxy-4-methylphenyl)cyclohexanecarboxamide]	< 100
COc1ccc(NC(=O)[C@]2(C)CC[C@H](N3Cc4c(C)cccc4NC3=O)CC2)cc1C#N (single isomer, unassigned) [Example 107, (1s,4s)-N-(3-cyano-4-methoxyphenyl)-1-methyl-4-(5-methyl-2-oxo-1,2-dihydroquinazolin-3(4H)-yl)cyclohexanecarboxamide]	< 100
COc1cc(NC(=O)[C@H]2CC[C@@H](N3Cc4c(C)ccc(N5CC(OC)C5)c4NC3=O)CC2)ccc1C [Example 38, (1s,4s)-N-(3-Methoxy-4-methylphenyl)-4-(8-(3-methoxyazetidin-1-yl)-5-methyl-2-oxo-1,2-dihydroquinazolin-3(4H)-yl)cyclohexanecarboxamide]	< 100
COc1cc(NC(=O)[C@@H]2CC[C@@H](N3Cc4c(C)cc(Br)cc4NC3=O)C2)ccc1C [Example 36, (1R,3R)-3-(7-Bromo-5-methyl-2-oxo-1,2-dihydroquinazolin-3(4H)-yl)-N-(3-methoxy-4-methylphenyl)cyclopentanecarboxamide]	1000 to 10000
COc1ccc(NC(=O)[C@H]2CC[C@@H](N3Cc4c(C)cccc4NC3=O)CC2)cc1Cl [Example 88, (1s,4s)-N-(3-chloro-4-methoxyphenyl)-4-(5-methyl-2-oxo-1,2-dihydroquinazolin-3(4H)-yl)cyclohexanecarboxamide]	< 100

The remaining lines, values ahead:

IC50 [nM]	Structure (SMILES)
100 to 1000	COc1ccc(NC(=O)[C@H]2CC[C@@H](N3Cc4c(C)cccc4C3=O)CC2)cc1C(F)(F)F [Example 231, (1s,4s)-N-(4-Methoxy-3-(trifluoromethyl)phenyl)-4-(4-methyl-1-oxoisoindolin-2-yl)cyclohexanecarboxamide]
100 to 1000	CNC(=O)c1cc(C)c2c(c1)C(=O)N([C@H]1CC[C@@H](C(=O)Nc3ccc(C)c(OC)c3)CC1)C2 [Example 212, 2-((1s,4s)-4-(3-Methoxy-4-methylphenylcarbamoyl)cyclohexyl)-N,7-dimethyl-3-oxoisoindoline-5-carboxamide]
100 to 1000	Cc1cccc2c1CN([C@H]1CC[C@@H](C(=O)Nc3ccc4oncc4c3)CC1)C2=O [Example 275, (1s,4s)-N-(benzo[d]isoxazol-5-yl)-4-(4-methyl-1-oxoisoindolin-2-yl)cyclohexanecarboxamide]
100 to 1000	COc1ccc(NC(=O)[C@H]2CC[C@@H](N3Cc4c(C)cccc4C3=O)CC2)cc1Cl [Example 238, (1s,4s)-N-(3-Chloro-4-methoxyphenyl)-4-(4-methyl-1-oxoisoindolin-2-yl)cyclohexanecarboxamide]
< 100	COc1cc(NC(=O)[C@H]2CC[C@@H](N3Cc4c(Br)cc(NCC5CCCN5)cc4C3=O)CC2)ccc1C (some centres unmarked) [Example 173, (1s,4s)-4-(4-Bromo-1-oxo-6-(pyrrolidin-2-ylmethylamino)isoindolin-2-yl)-N-(3-methoxy-4-methylphenyl)cyclohexanecarboxamide]
1000 to 10000	COc1cc(NC(=O)[C@H]2CC[C@@H](N3Cc4c(F)cccc4C3=O)CC2)ccc1C [Example 164, (1s,4s)-4-(4-Fluoro-1-oxoisoindolin-2-yl)-N-(3-methoxy-4-methylphenyl)cyclohexanecarboxamide]
> 10000	COc1cc(NC(=O)C2C[C@@H]3[C@H](C2)[C@H]3N2Cc3c(Br)cccc3C2=O)ccc1C (single isomer, unassigned) [Example 247]
> 10000	Cc1ncc(NC(=O)[C@H]2CC[C@@H](N3Cc4c(C)cccc4C3=O)CC2)s1 [Example 232, (1s,4s)-4-(4-Methyl-1-oxoisoindolin-2-yl)-N-(2-methylthiazol-5-yl)cyclohexanecarboxamide]
100 to 1000	COc1cc(NC(=O)[C@H]2CC[C@@H](N3Cc4c(Br)cc(NC(=O)CN(C)C)cc4C3=O)CC2)ccc1C [Example 202, (1s,4s)-4-(4-bromo-6-(2-(dimethylamino)acetamido)-1-oxoisoindolin-2-yl)-N-(3-methoxy-4-methylphenyl)cyclohexanecarboxamide]
< 100	COc1cc(NC(=O)[C@H]2CC[C@@H](N3Cc4c(C)cc(NCCN(C)C)cc4C3=O)CC2)ccc1C [Example 208, (1s,4s)-4-(6-(2-(Dimethylamino)ethylamino)-4-methyl-1-oxoisoindolin-2-yl)-N-(3-methoxy-4-methylphenyl)cyclohexanecarboxamide]

Same assay, conditions: OGG1/APEX IC50, 1 nM OGG1+2 nM APEX+6 nM dsDNA (8-oxo-dG substrate); pH 7.5; RT 40 min

IC50 [nM]	Structure (SMILES)
< 100	COc1cc(NC(=O)[C@H]2CC[C@@H](N3Cc4c(C)cc(N)cc4C3=O)CC2)ccc1C [Example 192, (1s,4s)-4-(6-Amino-4-methyl-1-oxoisoindolin-2-yl)-N-(3-methoxy-4-methylphenyl)cyclohexanecarboxamide]
